Laboratory results taken from publication PMC11900122, “Study of Intracellular Peptides of the Central Nervous System of Zebrafish (Danio rerio) in a Parkinson’s Disease Model” (International Journal of Molecular Sciences, 2025).

System: Zebrafish (Danio rerio) larvae
Experiment: Behavioral assay in 6-OHDA zebrafish larvae model
Type: in vivo
Conditions: larvae 4 dpf, 750 µM 6-OHDA 24 h, then peptide 50 µM for 24 h; filmed 5 min, ToxTrac; 12 embryos per group
Procedure: Wild-type adult D. rerio (zebrafish) were obtained from a licensed commercial distributor. They were maintained on a 14 h light–10 h dark photoperiod in fresh filtered water at 28 °C and fed twice a day with dry food and once a day with Artemia sp. Reproduction was performed in individual fish tanks in a 1 male–1 female proportion, with pebbles and artificial plants. Eggs were collected, selected and maintained in an incubator at 28 °C until 4 days post fertilization (dpf). This study followed the guidelines of the National Council for Animal Experimentation Control (CONCEA) and was approved by the Ethics Commission for Animal Use (CEUA) at the Bioscience Institute of São Paulo State University (São Vicente, Brazil: Protocol Number 06/2023, approved on 22 June 2023).
Zebrafish (Danio rerio) larvae at 4 dpf were transferred to a 96-well plate, a single larva per well. Larvae were treated with 750 µM 6-OHDA in system water for 24 h in an incubator at 28 °C. Then, solution was changed to system water with each peptide in different concentrations—10 µM, 20 µM, 30 µM, 40 µM and 50 µM [47]—and larvae were incubated at 28 °C for another 24 h. Finally, each larva was filmed for 5 min, and videos were processed by an automated tracking system (ToxTrac Version 2.96). Analysis parameters were mean speed (mm/s) and total distance swum (mm) (Figure 8). Statistical analysis was performed using a one-way analysis of variance (ANOVA) test followed by Dunnett’s test for multiple comparisons. Data were statistically analyzed using GraphPad Prism Software (GraphPad Software Inc., San Diego, CA, USA).
Figure 8 Zebrafish larva model. Zebrafish larvae were immersed in 6-OHDA 750 µM for 24 h, then in each peptide at 10 µM, 20 µM, 30 µM, 40 µM or 50 µM for 24 h. Videos were recorded for 5 min and then analyzed by software (ToxTrac Version 2.96). Parameters were mean speed and distance traveled.

Sequence	Mean speed, compared to the control group	Total distance swum, compared to the control group
GVGFATRQV [p-FABP7]	statistically equal results to the control group	statistically equal results to the control group
TIEQEKQAGSS [p-Tbeta4, […], derived from thymosin beta-4]	statistically equal results to the control group	statistically equal results to the control group
TLDLNEMDYIQRGGPE [p-MRPS36, peptide derived from mitochondrial ribosomal protein S36]	statistically equal results to the control group	statistically equal results to the control group
